Reference: patent US20090137593A1, “4-AMINO-2,6-DIMETHYLPHENOL COMPOUND, PROCESS FOR ITS PREPARATION AND PHARMACEUTICAL COMPOSITION COMPRISING THE SAME” (AZIEN CHIM RIUNITE ANGEL FRANC A.C.R.A.F. S.P.A., priority 2006, published 2009)
Structures can show the parent of a compound that is named as a salt.

Key:
[1] = tested on: yeast-induced febrile response; test: Anti-pyretic activity (yeast-induced febrile response, rectal temperature); assay type: in vivo, Male CD rats; details: CD rats; for effect on the febrile response (rectal temperature): 30 mg/kg ip 18 hours after yeast, FIG. 1
Procedure: This test allows in vivo evaluation of the effects on the yeast-induced febrile response. Male CD rats weighing 101-125 g were used. Fevers were induced by subcutaneous injection of a 15% yeast suspension. 18 hours after the administration of yeast, a first group of animals was treated intraperitoneally (30 mg/kg) with Compound 2, while a second group of animals was treated with the Comparison Compound. A third group of control animals received intraperitoneally only the vehicle (methylcellulose) used to administer the tested compounds. For all the groups, the rectal temperature was measured 30 minutes and 1, 2 and 4 hours after the treatment.

[2] = tested on: nociceptive response induced by mechanical hyperalgesia; test: Anti-nociceptive activity (carrageenan-induced mechanical hyperalgesia, analgesimeter); assay type: in vivo, Male CD rats; details: Rattus norvegicus; CD rats, ip 2 hours after carrageenan, evaluated 1, 2 and 4 hours after treatment; read-out: ED50 (anti-nociceptive, mechanical pain threshold)
[3] = target: T1, enzyme 5-LO (Homo sapiens, UniProt P09917); test: Effect on the enzyme 5-LO in vitro (human PMNL cells, arachidonic acid substrate, leukotriene quantification); assay type: cell-based; details: arachidonic acid as substrate, leukotriene (LT4) quantified
T1 construct: Human PMNL cells (polymorphonuclear leukocytes) were used; endogenous in cells; host or cells: human polymorphonuclear leukocytes (PMNL)
T1 sequence (P09917 1-674): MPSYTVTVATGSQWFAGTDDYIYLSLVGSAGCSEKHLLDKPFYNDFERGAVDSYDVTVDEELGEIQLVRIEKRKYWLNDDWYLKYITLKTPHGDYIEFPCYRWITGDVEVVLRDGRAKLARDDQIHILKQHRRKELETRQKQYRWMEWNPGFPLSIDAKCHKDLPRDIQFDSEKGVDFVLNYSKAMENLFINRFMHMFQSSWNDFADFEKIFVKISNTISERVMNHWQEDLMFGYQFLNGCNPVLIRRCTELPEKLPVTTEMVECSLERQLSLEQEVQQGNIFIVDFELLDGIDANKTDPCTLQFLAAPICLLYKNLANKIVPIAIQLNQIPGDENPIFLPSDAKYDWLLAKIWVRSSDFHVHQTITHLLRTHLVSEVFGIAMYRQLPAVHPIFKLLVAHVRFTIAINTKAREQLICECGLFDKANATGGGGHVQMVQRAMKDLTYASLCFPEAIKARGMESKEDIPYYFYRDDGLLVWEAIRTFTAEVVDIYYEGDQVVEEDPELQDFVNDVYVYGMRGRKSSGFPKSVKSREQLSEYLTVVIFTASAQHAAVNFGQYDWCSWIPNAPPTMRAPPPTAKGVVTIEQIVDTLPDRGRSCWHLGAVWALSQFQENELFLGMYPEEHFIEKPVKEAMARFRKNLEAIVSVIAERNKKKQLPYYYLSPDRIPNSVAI
Procedure: Human PMNL cells (polymorphonuclear leukocytes) were used.
The cells were incubated in the presence of N-(4-hydroxy-3,5-di-methylphenyl)-2-morpholin-4-yl acetamide hydrochloride (Compound 2), using arachidonic acid as reaction substrate.
The activity of the enzyme 5-LO was evaluated by quantifying leukotriene […], which is the final product of the enzymatic reaction.

[4] = tested on: 5-LO-mediated bronchoconstriction; test: Effect on 5-LO-mediated bronchoconstriction in vivo (ovalbumin-sensitized guinea pigs, intratracheal pressure); details: Cavia porcellus, 100 mg/kg ip, 30 minutes before ovalbumin 15 μg/kg iv, read-out: percentage of inhibition of bronchoconstriction
Procedure: Guinea pigs weighing 250-400 g were used.
The animals were sensitized by administration on days 1 and 8 of ovalbumin (0.5 μg/animal, ip). Between days 19 and 23 after the sensitization, the capacity of ovalbumin (15 μg/kg, iv) to induce bronchoconstriction was tested by measuring the increase in intratracheal pressure.
On the day of the test, 30 minutes after administration of Compound 2 (100 mg/kg, ip), the animals were treated with mepiramine (2 mg/kg, iv), indomethacin (10 mg/kg, iv) and propranolol (0.1 mg/kg, iv), and then received ovalbumin (15 μg/kg, iv) to induce bronchoconstriction. The control animals received intraperitoneally only the vehicle used (methylcellulose) for the administration of the tested compound.
The effects on 5-LO-mediated bronchoconstriction in vivo were evaluated by measuring the intratracheal pressure, and are expressed as a percentage of inhibition of bronchoconstriction.

[5] = tested on: PAN-induced nephrosis; test: Effects on PAN-induced nephrosis (proteinuria over 24 hours); assay type: in vivo, Male SD rats; details: Rattus norvegicus, SD rats, 100 mg/kg ip on seventh day, read-out: percentage of inhibition of the amount of protein excreted (PAN-induced nephrosis)
Procedure: This test allows the in vivo evaluation of the effects on renal damage induced by the inflammatory response following the administration of PAN (puromycin aminonucleoside). Male SD rats weighing 180-220 g were used. The nephrosis was induced by intravenous injection of PAN (100 mg/kg). On the sixth day of administration of PAN, the presence of nephrosis was determined by measuring the amount of protein excreted in the urine over 24 hours (basal proteinuria). On the seventh day, the rats were treated intraperitoneally with Compound 2 (100 mg/kg) and for the next 24 hours the urine was collected to measure the proteinuria. By following the same method, the control animals received, intraperitoneally, only the vehicle (methylcellulose) used to administer the tested compound. The effects on the PAN-induced nephrosis were evaluated by measuring the proteinuria over 24 hours and expressed as a percentage of inhibition of the amount of protein excreted.

[6] = tested on: nephritis induced by anti-GBM antibodies; test: Effects on nephritis induced by anti-GBM antibodies (proteinuria over 24 hours); assay type: in vivo, Male WKY rats; details: Rattus norvegicus, WKY rats, 100 mg/kg ip, 2 administrations per day, tenth day, read-out: percentage of inhibition of the amount of protein excreted (anti-GBM nephritis)
Procedure: This test allows evaluation in vivo of the effects on renal damage induced by the inflammatory response following the administration of anti-GBM antibodies (anti-glomerular basal membrane antibodies). Male WKY rats weighing 180-220 g were used. The nephritis was induced by intravenous injection of anti-GBM antibodies. Immediately after administration of the antibody and 6 hours later, Compound 2 was administered intraperitoneally (100 mg/kg). The treatment was continued for the following 9 days, with 2 administrations per day of the tested product. By following the same methods, the control animals received only the vehicle (methylcellulose) used to administer the tested compound. On the tenth day from injection of the antibodies, the effects on nephritis were evaluated by measuring the proteinuria over 24 hours and expressed as a percentage of inhibition of the amount of protein excreted.

[7] = tested on: 5-LO-mediated bronchoconstriction; details: Sakuma Y et al., Prostaglandins, 1991; cited from earlier work

Row | Structure (SMILES) | effect on the febrile response (rectal temperature) [1] | ED50 [2] [mg/kg] | IC50 [3] [µM] | inhibition at 100 mg/kg [4] [%] | inhibition at 100 mg/kg [5] [%] | inhibition at 100 mg/kg [6] [%] | duration of the anti-pyretic effects ([1]; 30 mg/kg ip) | time to significant reduction in the febrile response after treatment ([1]; 30 mg/kg ip) [h] | percentage of inhibition of bronchoconstriction (literature reference) [7] [%]
1 | Cc1cc(NC(=O)CCN2CCOCC2)cc(C)c1O [Comparison Compound, N-(4-Hydroxy-3,5-dimethylphenyl)-3-morpholin-4-yl propanamide hydrochloride, reference compound] | incapable of reducing the febrile response | > 100 |  |  |  |  |  |  | 
2 | Cc1cc(NC(=O)CN2CCOCC2)cc(C)c1O [Compound 2, N-(4-Hydroxy-3,5-dimethylphenyl)-2-morpholin-4-yl acetamide hydrochloride] | significant reduction in the febrile response | 3 | 31 | 7 | 2 | 1 | about 4 hours | ≤ 1 | 
3 | O=C1CCN(c2ccccc2)N1 [phenidone] |  |  |  |  |  |  |  |  | 86
